According to ChEMBL document CHEMBL1201862, “PubChem BioAssay data set” (2004):
Activity calls are given as the source filed them. Unless noted, the rule behind the calls is not given here.

Experiments:
[1] = target: Cytochrome P450 2D6 (Homo sapiens, UniProt P10635);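 also: CYP2D6 member of a cytochrome P450 panel assay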
[2] = toxicity toward cultured mammalian cells – cell-based, plate reader, cherry-pick samples, cytotoxicity control, dose response (AID 504397); assay type: functional
[3] = target: T1, Type-1 angiotensin II receptor (Homo sapiens, UniProt P30556); assay: antagonism of angiotensin II type 1 receptor – cell-based, uHTS hits, selectivity assay for APJ receptor antagonist project, dose response (AID 463214); assay type: functional;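 also: antagonist potency against angiotensin II stimulated AT1 response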
T1 sequence (P30556 whole entry): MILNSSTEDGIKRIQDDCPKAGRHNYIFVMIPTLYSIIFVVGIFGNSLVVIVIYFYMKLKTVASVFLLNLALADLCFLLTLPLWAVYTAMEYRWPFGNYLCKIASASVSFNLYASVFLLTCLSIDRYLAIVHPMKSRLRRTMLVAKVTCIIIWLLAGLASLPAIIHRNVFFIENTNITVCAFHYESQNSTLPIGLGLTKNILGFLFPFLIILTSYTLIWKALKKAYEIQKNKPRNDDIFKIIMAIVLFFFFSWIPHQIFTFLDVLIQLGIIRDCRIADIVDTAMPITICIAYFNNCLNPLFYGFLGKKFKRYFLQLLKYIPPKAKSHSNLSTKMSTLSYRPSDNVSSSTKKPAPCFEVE

[4] = target: Beta-galactosidase (Escherichia coli, UniProt Q8VNN2); assay: PubChem AID 485352; assay type: functional
Sequence of Beta-galactosidase (Q8VNN2 whole entry): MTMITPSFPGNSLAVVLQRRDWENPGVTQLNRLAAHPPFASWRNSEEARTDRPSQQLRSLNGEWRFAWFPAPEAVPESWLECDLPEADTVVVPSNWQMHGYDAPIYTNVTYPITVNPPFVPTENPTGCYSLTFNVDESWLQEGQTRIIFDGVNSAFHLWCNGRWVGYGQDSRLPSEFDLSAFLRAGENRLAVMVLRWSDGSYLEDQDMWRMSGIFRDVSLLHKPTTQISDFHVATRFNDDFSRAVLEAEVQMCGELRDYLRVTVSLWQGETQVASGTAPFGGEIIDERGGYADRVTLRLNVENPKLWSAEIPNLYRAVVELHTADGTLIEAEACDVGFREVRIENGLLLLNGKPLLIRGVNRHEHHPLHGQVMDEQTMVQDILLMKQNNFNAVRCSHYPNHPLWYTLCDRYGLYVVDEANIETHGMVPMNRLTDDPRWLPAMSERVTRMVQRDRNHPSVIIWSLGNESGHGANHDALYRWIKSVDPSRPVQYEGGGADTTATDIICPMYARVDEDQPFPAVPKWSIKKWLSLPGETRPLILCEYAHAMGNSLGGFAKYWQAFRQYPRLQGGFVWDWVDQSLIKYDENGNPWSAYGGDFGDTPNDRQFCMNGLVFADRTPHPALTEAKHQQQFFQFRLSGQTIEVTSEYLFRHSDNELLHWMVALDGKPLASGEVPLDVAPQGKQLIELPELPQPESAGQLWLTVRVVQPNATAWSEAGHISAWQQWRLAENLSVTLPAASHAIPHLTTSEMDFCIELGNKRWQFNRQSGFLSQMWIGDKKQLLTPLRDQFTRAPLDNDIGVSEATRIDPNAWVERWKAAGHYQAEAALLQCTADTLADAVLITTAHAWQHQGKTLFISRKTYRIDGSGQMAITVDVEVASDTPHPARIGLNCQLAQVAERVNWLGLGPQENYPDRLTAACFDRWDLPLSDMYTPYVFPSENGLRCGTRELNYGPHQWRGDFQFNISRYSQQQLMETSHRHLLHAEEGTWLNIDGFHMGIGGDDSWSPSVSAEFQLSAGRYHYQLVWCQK

[5] = target: Intestinal-type alkaline phosphatase (Mus musculus, UniProt P24822); assay: PubChem AID 488874; assay type: functional
[6] = target: Alkaline phosphatase, tissue-nonspecific isozyme (Homo sapiens, UniProt P05186); assay: inhibition of tissue-nonspecific alkaline phosphatase – biochemical, dose response (AID 488882); assay type: functional
[7] = target: T2, Intestinal-type alkaline phosphatase (Homo sapiens, UniProt P09923); assay: Dose Response confirmation of uHTS hits from a small molecule inhibitors of human intestinal alkaline phosphatase via a luminescent assay. [Related pubchem assays (depositor defined):AID2544, AID2574]; assay type: functional
T2 sequence (P09923 whole entry): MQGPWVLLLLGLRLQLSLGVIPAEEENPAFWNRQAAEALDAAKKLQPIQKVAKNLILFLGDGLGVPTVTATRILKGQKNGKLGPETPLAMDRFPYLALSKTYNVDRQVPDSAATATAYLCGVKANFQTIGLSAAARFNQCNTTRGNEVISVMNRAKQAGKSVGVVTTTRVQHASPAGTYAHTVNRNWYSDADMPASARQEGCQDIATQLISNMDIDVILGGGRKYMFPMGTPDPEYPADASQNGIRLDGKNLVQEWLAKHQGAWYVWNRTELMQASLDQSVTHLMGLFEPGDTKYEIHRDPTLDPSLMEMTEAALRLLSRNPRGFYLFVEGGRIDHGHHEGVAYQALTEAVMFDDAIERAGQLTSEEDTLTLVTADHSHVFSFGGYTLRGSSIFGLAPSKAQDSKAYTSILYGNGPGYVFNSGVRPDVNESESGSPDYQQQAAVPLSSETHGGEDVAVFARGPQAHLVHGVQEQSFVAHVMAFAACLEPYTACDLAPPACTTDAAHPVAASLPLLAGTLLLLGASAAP

[8] = target: T2, Intestinal-type alkaline phosphatase; assay: inhibition of human intestinal alkaline phosphatase – biochemical, luminescent, uHTS hits, set 2, dose response (AID 488793); assay type: functional
[9] = target: UDP-galactopyranose mutase (Mycobacterium tuberculosis, UniProt P9WIQ1); assay: Inhibitors of Mycobacterium tuberculosis UDP-galactopyranose mutase (UGM) enzyme Measured in Biochemical System Using Plate Reader - 2105-02_Inhibitor_Dose_CherryPick_Activity. [Related pubchem assays (depositor defined):AID504439]
Sequence of UDP-galactopyranose mutase (P9WIQ1 whole entry): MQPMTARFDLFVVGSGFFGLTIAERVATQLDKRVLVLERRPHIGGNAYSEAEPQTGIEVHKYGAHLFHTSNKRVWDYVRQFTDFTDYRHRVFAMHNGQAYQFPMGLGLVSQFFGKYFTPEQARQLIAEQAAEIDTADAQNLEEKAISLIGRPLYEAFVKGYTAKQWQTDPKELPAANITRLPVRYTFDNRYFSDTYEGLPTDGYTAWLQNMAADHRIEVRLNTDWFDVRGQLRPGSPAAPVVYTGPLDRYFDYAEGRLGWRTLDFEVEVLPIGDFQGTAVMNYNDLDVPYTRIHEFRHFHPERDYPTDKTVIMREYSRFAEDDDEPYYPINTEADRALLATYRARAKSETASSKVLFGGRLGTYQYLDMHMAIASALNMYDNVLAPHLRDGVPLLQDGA

[10] = target: Lysine-specific demethylase 4C (Homo sapiens, UniProt Q9H3R0); assay: inhibition of JMJD2C H3K9me3 demethylation – biochemical, DELFIA europium, cherry-picked samples, dose response (AID 488835); assay type: functional
Sequence of Lysine-specific demethylase 4C (Q9H3R0 whole entry): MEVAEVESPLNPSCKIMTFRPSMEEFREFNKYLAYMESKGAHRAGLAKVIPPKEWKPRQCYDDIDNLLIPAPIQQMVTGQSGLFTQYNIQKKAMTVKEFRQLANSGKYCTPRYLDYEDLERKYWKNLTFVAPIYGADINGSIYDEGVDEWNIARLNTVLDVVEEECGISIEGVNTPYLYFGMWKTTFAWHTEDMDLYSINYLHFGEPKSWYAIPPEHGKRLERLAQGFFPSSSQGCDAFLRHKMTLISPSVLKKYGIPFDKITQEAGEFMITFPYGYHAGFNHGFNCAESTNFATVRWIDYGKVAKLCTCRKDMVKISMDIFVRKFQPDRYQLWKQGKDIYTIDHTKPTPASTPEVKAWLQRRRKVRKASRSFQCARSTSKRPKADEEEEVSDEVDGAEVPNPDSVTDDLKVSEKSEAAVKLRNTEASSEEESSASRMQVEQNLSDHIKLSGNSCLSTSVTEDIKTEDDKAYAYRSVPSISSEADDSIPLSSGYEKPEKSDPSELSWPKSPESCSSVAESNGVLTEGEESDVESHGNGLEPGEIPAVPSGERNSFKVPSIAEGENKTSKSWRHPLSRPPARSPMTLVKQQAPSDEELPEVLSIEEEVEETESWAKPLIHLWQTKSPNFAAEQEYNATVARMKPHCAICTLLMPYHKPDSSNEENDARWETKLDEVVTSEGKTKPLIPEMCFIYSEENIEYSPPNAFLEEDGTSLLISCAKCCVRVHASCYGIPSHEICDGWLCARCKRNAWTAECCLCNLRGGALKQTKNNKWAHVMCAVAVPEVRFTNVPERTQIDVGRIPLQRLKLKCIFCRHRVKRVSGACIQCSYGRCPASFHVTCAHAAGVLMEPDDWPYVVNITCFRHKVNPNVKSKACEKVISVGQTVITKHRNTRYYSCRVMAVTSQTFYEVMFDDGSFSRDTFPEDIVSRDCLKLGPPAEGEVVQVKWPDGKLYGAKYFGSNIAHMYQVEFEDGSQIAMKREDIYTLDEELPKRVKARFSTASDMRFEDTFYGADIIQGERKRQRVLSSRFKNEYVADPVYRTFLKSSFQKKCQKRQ

[11] = target: T3, Tyrosine-protein phosphatase non-receptor type 22 (Homo sapiens, UniProt Q9Y2R2); assay type: functional
T3 sequence (Q9Y2R2 whole entry): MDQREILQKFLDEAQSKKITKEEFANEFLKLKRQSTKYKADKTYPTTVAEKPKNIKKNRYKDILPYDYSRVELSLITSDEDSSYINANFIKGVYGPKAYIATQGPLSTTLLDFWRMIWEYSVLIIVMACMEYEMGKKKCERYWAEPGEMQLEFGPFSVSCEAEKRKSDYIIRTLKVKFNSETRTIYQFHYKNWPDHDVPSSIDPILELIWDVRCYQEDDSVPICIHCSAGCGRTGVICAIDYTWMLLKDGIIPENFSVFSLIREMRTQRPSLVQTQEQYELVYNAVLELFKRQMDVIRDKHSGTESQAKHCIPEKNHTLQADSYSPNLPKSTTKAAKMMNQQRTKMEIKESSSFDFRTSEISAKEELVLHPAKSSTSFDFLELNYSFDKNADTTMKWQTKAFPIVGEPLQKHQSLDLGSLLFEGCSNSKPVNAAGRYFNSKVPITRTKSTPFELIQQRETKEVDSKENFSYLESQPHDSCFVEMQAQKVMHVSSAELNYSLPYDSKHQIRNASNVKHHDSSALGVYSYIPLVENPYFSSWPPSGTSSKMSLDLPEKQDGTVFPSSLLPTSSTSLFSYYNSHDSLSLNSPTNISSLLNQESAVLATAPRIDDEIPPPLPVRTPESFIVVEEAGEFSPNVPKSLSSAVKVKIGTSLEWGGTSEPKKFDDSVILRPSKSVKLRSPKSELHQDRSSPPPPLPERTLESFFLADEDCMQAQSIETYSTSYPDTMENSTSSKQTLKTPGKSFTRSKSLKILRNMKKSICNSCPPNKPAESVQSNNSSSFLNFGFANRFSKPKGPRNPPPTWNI

[12] = target: T3, Tyrosine-protein phosphatase non-receptor type 22; assay type: functional; remark: listed apart in the source
[13] = target: T4, Tyrosine-protein phosphatase non-receptor type 7 (Homo sapiens, UniProt P35236); assay type: functional
T4 sequence (P35236 whole entry): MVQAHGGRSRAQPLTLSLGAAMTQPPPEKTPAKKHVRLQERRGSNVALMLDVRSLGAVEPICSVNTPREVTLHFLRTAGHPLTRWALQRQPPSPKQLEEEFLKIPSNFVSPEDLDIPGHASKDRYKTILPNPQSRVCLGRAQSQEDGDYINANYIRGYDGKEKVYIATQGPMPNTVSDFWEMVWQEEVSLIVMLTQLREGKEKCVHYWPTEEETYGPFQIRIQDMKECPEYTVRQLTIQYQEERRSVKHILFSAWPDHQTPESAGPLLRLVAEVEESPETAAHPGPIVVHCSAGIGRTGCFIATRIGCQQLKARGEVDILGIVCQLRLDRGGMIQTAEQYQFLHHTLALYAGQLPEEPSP

[14] = target: T5, Serine/threonine-protein phosphatase (Candida dubliniensis (strain CD36 / CBS 7987 / NCPF 3949 / NRRLY-17841) (Yeast), UniProt B9W6M3); assay: blockers of CaCl2-induced CDRE-lacZ signaling – S. cerevisiae, luminescence, secondary, dose response (AID 2388); assay type: functional, cell-based;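 also: yeast reporter cells carrying a calcineurin-responsive lacZ construct stimulated with calcium chloride; luminescent beta-galactosidase reporter signal in whole cells rather than isolated phosphatase activity; potency for inhibition where a drop in reporter signal means calcineurin blockade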
T5 sequence (B9W6M3 whole entry): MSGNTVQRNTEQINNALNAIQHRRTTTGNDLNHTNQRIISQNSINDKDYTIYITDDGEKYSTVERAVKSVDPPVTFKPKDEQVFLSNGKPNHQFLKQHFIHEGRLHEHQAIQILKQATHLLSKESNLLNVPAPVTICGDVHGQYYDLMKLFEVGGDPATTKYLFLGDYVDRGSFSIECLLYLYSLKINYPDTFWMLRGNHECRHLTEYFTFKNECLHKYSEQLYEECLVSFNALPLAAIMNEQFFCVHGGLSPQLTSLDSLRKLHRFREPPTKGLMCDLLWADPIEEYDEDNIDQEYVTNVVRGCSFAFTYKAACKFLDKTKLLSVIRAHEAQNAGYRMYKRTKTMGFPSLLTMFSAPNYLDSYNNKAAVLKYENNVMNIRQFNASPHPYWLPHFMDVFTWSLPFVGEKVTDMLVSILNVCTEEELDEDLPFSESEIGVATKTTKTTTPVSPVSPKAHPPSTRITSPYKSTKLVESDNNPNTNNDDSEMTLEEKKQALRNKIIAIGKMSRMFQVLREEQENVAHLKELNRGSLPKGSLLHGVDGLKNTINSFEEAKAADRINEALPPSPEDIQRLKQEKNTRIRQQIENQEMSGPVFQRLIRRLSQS

[15] = target: T6, Peroxisome proliferator-activated receptor gamma (Homo sapiens, UniProt P37231); assay: competitive ligand displacement at PPARg – biochemical, TR-FRET, LanthaScreen, PPARg partial agonist project, dose response (AID 504446)
T6 sequence (P37231 whole entry): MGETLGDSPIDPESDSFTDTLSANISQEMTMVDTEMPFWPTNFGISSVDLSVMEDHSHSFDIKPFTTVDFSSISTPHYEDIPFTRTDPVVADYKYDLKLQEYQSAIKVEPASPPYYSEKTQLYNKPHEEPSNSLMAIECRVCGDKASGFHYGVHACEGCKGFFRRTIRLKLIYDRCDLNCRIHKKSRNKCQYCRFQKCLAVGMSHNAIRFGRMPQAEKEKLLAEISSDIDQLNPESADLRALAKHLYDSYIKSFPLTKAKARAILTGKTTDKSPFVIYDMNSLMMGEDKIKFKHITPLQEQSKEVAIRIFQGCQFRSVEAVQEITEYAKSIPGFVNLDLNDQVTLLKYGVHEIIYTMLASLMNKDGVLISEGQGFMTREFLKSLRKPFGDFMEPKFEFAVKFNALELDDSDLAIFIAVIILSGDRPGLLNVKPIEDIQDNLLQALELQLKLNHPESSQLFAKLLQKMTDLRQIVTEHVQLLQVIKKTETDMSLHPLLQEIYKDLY

[16] = NIH-3T3 fibroblast cytotoxicity, dose response, cytotoxicity control, cell-based, fluorescence, Alamar Blue, secondary assay (AID 2327); assay type: functional;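 also: NIH-3T3 mouse fibroblasts cultured with fluconazole at 8 µg/mL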
[17] = target: T6, Peroxisome proliferator-activated receptor gamma; assay: PPARg transcriptional activation, reporter cells – cell-based, luminescence, assay provider, dose response (AID 504447); assay type: functional
[18] = fluconazole-exposed Candida albicans growth modulators – fluorescence, retest, confirmation (AID 2467); assay type: functional, cell-based
[19] = target: ATP-dependent molecular chaperone HSP82 (Candida albicans (strain WO-1) (Yeast), UniProt C4YTQ8); assay: steroid-induced GRE reporter decrease in yeast – S. cerevisiae, luminescence, Hsp90 inhibitor project, dose response (AID 2400); assay type: functional, cell-based;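 also: beta-galactosidase luminescence from glucocorticoid response element reporter as proxy for Hsp90 function; inhibitor potency where signal loss means Hsp90 inhibition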
Sequence of ATP-dependent molecular chaperone HSP82 (C4YTQ8 whole entry): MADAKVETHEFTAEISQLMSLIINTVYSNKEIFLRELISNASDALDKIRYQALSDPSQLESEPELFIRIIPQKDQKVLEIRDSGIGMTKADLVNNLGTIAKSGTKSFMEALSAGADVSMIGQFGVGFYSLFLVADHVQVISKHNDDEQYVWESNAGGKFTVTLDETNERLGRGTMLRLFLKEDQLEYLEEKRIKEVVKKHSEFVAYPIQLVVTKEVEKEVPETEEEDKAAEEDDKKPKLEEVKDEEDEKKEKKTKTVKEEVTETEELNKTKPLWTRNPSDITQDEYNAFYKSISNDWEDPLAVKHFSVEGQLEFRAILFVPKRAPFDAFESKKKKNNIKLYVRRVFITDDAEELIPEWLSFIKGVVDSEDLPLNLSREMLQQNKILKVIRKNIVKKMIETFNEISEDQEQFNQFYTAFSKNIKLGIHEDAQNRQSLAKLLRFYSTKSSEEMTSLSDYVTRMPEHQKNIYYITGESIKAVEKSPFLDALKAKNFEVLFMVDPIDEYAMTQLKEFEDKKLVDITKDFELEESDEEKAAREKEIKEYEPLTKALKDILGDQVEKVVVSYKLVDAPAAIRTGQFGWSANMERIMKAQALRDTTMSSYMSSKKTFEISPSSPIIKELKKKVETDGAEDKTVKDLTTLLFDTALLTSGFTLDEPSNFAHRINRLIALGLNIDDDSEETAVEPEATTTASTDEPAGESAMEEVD

[20] = target: T6, Peroxisome proliferator-activated receptor gamma; assay: competitive ligand displacement at PPARg – biochemical, fluorescence polarization, PolarScreen, PPARg partial agonist project, dose response (AID 504453)
[21] = target: T7, Mu-type opioid receptor (Homo sapiens, UniProt P35372); assay: SAR Analysis of Agonists of the MOR Receptor using an Image-Based Assay - Set 2. [Related pubchem assays (depositor defined):AID1777, AID1785, AID1786, AID1966, AID2133, AID2136, AID2284, AID2285, AID2352]; assay type: functional
T7 sequence (P35372 whole entry): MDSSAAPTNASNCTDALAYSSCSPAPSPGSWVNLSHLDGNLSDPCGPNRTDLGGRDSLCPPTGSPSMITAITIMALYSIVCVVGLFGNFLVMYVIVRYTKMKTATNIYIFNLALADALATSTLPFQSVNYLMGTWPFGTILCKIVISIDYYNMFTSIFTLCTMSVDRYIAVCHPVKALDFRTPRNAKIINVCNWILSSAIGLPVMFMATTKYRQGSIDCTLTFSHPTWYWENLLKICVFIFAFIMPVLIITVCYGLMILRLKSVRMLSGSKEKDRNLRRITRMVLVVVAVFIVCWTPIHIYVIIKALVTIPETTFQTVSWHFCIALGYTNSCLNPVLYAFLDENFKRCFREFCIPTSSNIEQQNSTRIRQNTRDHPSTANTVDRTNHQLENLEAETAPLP

[22] = target: T8, Kappa-type opioid receptor (Homo sapiens, UniProt P41145); assay: SAR analysis of small molecule agonists of the kappa opioid receptor via a luminescent beta-arrestin assay - Set 2. [Related pubchem assays (depositor defined):AID1777, AID1785, AID1786, AID1966, AID2133, AID2136, AID2284, AID449737]; assay type: functional
T8 sequence (P41145 whole entry): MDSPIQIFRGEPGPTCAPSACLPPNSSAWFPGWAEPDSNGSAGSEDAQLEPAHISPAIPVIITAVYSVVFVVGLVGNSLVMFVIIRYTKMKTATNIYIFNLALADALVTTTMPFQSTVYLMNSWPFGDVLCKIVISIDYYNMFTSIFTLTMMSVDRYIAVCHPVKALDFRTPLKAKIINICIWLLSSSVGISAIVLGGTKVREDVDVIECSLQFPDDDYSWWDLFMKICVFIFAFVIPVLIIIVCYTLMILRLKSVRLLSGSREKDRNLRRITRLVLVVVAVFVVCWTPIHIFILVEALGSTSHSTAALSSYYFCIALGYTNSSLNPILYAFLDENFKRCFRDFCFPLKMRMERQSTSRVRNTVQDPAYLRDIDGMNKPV

[23] = target: T7, Mu-type opioid receptor; assay: SAR Analysis of Antagonists of the MOR Receptor using an Image-Based Assay - Set 2. [Related pubchem assays (depositor defined):AID1777, AID1785, AID1786, AID1966, AID2133, AID2136, AID2284, AID2285, AID2420]; assay type: functional
[24] = target: T8, Kappa-type opioid receptor; assay: kappa opioid receptor blockade potency – cell-based, luminescence, set 2, SAR follow-up (AID 2495); assay type: functional
[25] = target: T9, Delta-type opioid receptor (Homo sapiens, UniProt P41143); assay: SAR Analysis of Agonists of the DOR Receptor using an Image-Based Assay - Set 2. [Related pubchem assays (depositor defined):AID1777, AID1785, AID1786, AID1966, AID2133, AID2136, AID2284, AID2285, AID2370]; assay type: functional
T9 sequence (P41143 whole entry): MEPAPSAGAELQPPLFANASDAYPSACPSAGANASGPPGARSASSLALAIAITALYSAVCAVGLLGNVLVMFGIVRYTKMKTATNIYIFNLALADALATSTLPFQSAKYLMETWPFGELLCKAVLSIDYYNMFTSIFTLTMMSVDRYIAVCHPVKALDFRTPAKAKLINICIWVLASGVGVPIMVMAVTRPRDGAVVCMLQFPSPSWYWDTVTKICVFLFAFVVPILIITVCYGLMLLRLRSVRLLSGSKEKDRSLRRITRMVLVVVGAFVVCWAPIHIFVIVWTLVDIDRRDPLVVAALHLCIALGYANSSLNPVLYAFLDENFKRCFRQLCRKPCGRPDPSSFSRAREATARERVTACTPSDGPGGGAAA

[26] = target: T8, Kappa-type opioid receptor; assay: SAR analysis of Antagonists of the Kappa Opioid Receptor (KOR) using an Image-Based Assay - Set 2. [Related pubchem assays (depositor defined):AID1777, AID1785, AID1786, AID1966, AID2133, AID2136, AID2284, AID2285, AID2348]; assay type: functional
[27] = target: T9, Delta-type opioid receptor; assay: SAR Analysis of Antagonists of the DOR Receptor using an Image-Based Assay - Set 2. [Related pubchem assays (depositor defined):AID1777, AID1785, AID1786, AID1966, AID2133, AID2136, AID2284, AID2285, AID2357]; assay type: functional
[28] = target: T8, Kappa-type opioid receptor; assay: SAR analysis of Agonists of the Kappa Opioid Receptor (KOR) using an Image-Based Assay - Set 2. [Related pubchem assays (depositor defined):AID1777, AID1786, AID1966, AID2133, AID2136, AID2284, AID2285, AID2359]; assay type: functional
[29] = target: Voltage-dependent T-type calcium channel subunit alpha-1H (Homo sapiens, UniProt O95180); assay: human CACNA1H calcium influx blockade – cell-based, synthetic library set 2, HEK293 HH8, Fluo-4, SAR follow-up (AID 493023); assay type: functional

## O=C(O)C1(C(=O)O)CCN(S(=O)(=O)c2ccccc2)CC1
[1]
  AC50: inconclusive

## COc1ccc(CCN(C)C(=O)c2ccc(S(=O)(=O)Nc3ccccc3C)cc2)cc1OC
[2]
  AC50: > 350 µM (inactive)

## CN(C)c1ccc2nc3c(=O)[nH]c(=O)nc-3n(CC(O)C(O)C(O)CO)c2c1 (centres undefined)
[3]
  IC50: 29.1 µM (not active)
[4]
  EC50: > 40 µM (inactive)
[5]
  IC50: 30.8 µM (active)
[6]
  IC50: 33 µM (active)
[7]
  IC50: 14.7 µM (inactive)
[8]
  IC50: 34 µM (active)
[9]
  AC50: > 500 µM (inactive)

## CC(=O)Nc1ccc(CN2CCN(c3cccc(C(F)(F)F)c3)CC2)cc1
[10]
  AC50: 24.8 µM (active)

## COC(=O)C1=NN(C(=O)c2cccc(Cl)c2)C(O)(C(C)(C)C)C1 (centres undefined)
[11]
  IC50: > 79.4 µM (inactive)
[12]
  IC50: > 79.4 µM (inactive)
[13]
  IC50: > 79.4 µM (inactive)

## Cc1ccc2nc(N3C(=O)C(O)=C(C(=O)c4ccco4)C3c3ccc(C)o3)sc2c1 (centres undefined)
[14]
  EC50: > 180 µM (inactive)
[15]
  IC50: 14 µM (inactive)
[16]
  EC50: 67.5 µM (active)
[17]
  EC50: 26 µM (active)
[18]
  EC50: 0.071 µM (active)
[19]
  EC50: 9.58 µM (active)
[20]
  IC50: 30 µM (active)

## Cc1ccc(S(=O)(=O)NCc2ccc(C(=O)NCCCN(Cc3ccccc3)C(C)C)cc2)cc1
[21]
  EC50: > 32 µM (inactive)
[22]
  EC50: > 20 µM (inactive)
[23]
  IC50: > 32 µM (inactive)
[24]
  IC50: > 20 µM (inactive)
[25]
  EC50: > 32 µM (inactive)
[26]
  IC50: > 32 µM (inactive)
[27]
  IC50: > 32 µM (inactive)
[28]
  EC50: > 32 µM (inactive)

## CC(C)(C)CCN1CCC[C@H](NC(=O)COc2ccc(F)cc2Cl)C1
[29]
  EC50: 2.4 µM (active)
